Where a SMILES comes first, the peptide text is derived from it. The star is where a group is joined. Boc = CC(C)(C)OC(=O)*
Assays:
[1] = target: T1, Human rhinovirus A protease (Human rhinovirus sp., UniProt Q4U254); assay: Inhibitory activity against human rhinovirus-14 Protease 3C; set-up: species or system rhinovirus B14
T1 sequence (Q4U254 whole entry): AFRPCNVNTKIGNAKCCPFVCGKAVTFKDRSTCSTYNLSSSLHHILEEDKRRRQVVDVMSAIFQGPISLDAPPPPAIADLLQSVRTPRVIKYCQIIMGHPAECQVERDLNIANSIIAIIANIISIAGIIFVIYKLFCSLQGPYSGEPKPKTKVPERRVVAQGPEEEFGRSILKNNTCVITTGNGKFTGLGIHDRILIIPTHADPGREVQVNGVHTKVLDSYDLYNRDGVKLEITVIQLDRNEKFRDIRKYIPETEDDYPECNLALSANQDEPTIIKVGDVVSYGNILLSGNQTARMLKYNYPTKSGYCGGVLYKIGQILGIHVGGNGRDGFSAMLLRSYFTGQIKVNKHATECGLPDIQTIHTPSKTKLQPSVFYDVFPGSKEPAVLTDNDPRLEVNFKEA

[2] = test system: Nucleic Acid; assay: In vitro ability to selectively inhibit the translation of rhinoviral RNA in translation assay; format: functional; conditions: Human rhinovirus sp.
[3] = test system: rhinovirus B14; assay: Inhibitory activity against human rhinovirus-14 in cell culture; format: functional; conditions: Rhinovirus B; read-out: ED50 (the source's name)
[4] = test system: Nucleic Acid; assay: In vitro ability to selectively inhibit the translation of rhinoviral RNA in translation assay; Toxic; format: functional; conditions: Human rhinovirus sp.

**Q.** Which results are given for `CC(=O)N[C@@H](CC(C)C)C(=O)N[C@@H](Cc1ccccc1)C(=O)N[C@H](C=O)CCC(N)=O` (Ac-Leu-Phe-Gln-aldehyde)?
**A.** IC50 [1]: 2.7 µM; Activity [2]: 170 µM

**Q.** For `CC(=O)NCC(=O)N[C@@H](Cc1ccccc1)C(=O)N[C@H](C=O)CCC(N)=O` (Ac-Gly-Phe-Gln-aldehyde), which IC50 [1] is on record?
**A.** 16 µM

**Q.** How did the IC50 [1] turn out when `CC(C)C[C@H](NC(=O)OC(C)(C)C)C(=O)N[C@@H](Cc1ccccc1)C(=O)N[C@H](C=O)CCC(N)=O` (Boc-Leu-Phe-Gln-aldehyde) was run?
**A.** > 80 µM

**Q.** For `CC(C)C[C@H](NC(=O)[C@@H](NC(=O)OC(C)(C)C)C(C)C)C(=O)N[C@@H](Cc1ccccc1)C(=O)N[C@H](C=O)CCC(N)=O` (Boc-VLFQ-aldehyde), which EC50 [3] is on record?
**A.** 500 µM

**Q.** What about the IC50 [1] of the same compound?
**A.** 0.6 µM

**Q.** What about the Activity [2] of the same compound?
**A.** 10 µM

**Q.** How did the IC50 [1] turn out when `CC(C)CC(=O)N[C@@H](Cc1ccccc1)C(=O)N[C@H](C=O)CCC(N)=O` was run?
**A.** > 80 µM

**Q.** And the Activity [2]?
**A.** > 200 µM

**Q.** For `CC(C)(C)OC(=O)N[C@@H](Cc1ccccc1)C(=O)N[C@H](C=O)CCC(N)=O`, which IC50 [1] is on record?
**A.** > 80 µM

**Q.** For `CC(C)C[C@H](NC(=O)[C@@H](NC(=O)OC(C)(C)C)C(C)C)C(=O)N[C@@H](Cc1ccccc1)C(=O)NCC=O` (Boc-VLFG-aldehyde), which IC50 [1] is on record?
**A.** 10 µM

**Q.** And the Activity [2]?
**A.** 180 µM

**Q.** `CC(C)C[C@H](N)C(=O)N[C@@H](Cc1ccccc1)C(=O)N[C@H](C=O)CCC(N)=O` (H-Leu-Phe-Gln-aldehyde) was tested. Which IC50 [1] did it give?
**A.** 1 µM

**Q.** And the Activity [4]?
**A.** Toxic
